Data on two compounds can be found in paper PMC5363247 (Angewandte Chemie (International Ed. in English), 2017).

As a reminder, the inhibition is how much of the control response was suppressed.

Test [1] deals with T1, factor Xa (Homo sapiens, UniProt P00742). The test is described as follows: factor Xa enzyme activity. It is filed as biochemical. The conditions noted are these: initial rates, Michaelis-Menten fit.
For test [2], the target named is T1, factor Xa. In words: fragment ligation assay, detection via biochemical assay. Conditions: read-out: inhibition of factor Xa.

T1 sequence (P00742 235-488 limits assumed): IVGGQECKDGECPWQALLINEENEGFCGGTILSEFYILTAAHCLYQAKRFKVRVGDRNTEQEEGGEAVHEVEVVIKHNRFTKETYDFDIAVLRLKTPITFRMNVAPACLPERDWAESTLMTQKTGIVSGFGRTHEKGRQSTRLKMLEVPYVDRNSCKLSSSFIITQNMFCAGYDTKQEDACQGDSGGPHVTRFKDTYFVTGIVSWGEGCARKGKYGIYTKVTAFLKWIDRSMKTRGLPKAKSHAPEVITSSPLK
T1 sequence (P00742 41-179 partner limits assumed): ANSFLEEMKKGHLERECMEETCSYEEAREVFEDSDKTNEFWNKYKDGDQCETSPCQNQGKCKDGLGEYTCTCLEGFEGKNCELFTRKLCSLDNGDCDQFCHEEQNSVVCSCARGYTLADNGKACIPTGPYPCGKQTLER

Regarding “7‐(N‐Boc‐leucinyl‐glycinyl‐arginyl)‐7‐amino‐4‐methylcoumarin”, in test [1], the “K M of fluorogenic substrate” value came to 76 µM.
On to `N=C(N)c1ccc(CN)cc1` [compound 14, 4‐Aminomethylbenzamidine], for which, in test [2], the inhibition at 285 µM was found to be 20%.
